In patent US20120231141A1, “BITTERNESS-IMPROVING AGENT FOR BITTER FOOD AND DRINK AND ASTRINGENCY-IMPROVING AGENT FOR ASTRINGENT FOOD AND DRINK” (priority 2009, published 2012):

What was measured:
[1] = Bitterness evaluation of carbonated water (flavor comparison by 10 panelists); type: in vivo; details: for A: the number of panelists who felt no difference from sedanenolide-free / B: the number of panelists who felt some reduction in bitterness / Flavor judgment: the number of panelists who judged it as most proper bitterness / N: the number of panelists who hardly felt bitterness: 10 panelists
Protocol: Sedanenolide was added as a bitterness-improving agent (masking agent for bitterness) of the present invention to sufficiently deaerated pure water at the concentrations shown in the following Table 4, and then carbon dioxide gas was sealed in each bottle at a pressure of 294 KPa to obtain carbonated water of the present invention.

[2] = Astringency evaluation of green tea drink (flavor comparison by 10 panelists); type: in vivo; details: for A: the number of panelists who felt no difference from sedanenolide-free / B: the number of panelists who felt some reduction in astringency / Flavor judgment: the number of panelists who judged it as most proper astringency / N: the number of panelists who hardly felt astringency: 10 panelists
Protocol: Five thousand grams of hot water (containing 0.03% of sodium ascorbate) of 95° C. was added to 100 g of domestic green tea (second picking tea), followed by extraction for 5 min while sometimes stirring. Subsequently, solid-liquid separation with flannel filter was performed to obtain 4500 g of an extract (Bx 0.7°). This extract was adjusted to Bx 0.5° with deionized water to obtain green tea extract having strong astringency. Sedanenolide was added as a taste-improving agent (masking agent for astringency) of the present invention to the resulting extract at the concentrations shown in the following Table 4 to obtain green tea drinks.

[3] = sedanenolide 0.01 ppb in carbonated water
[4] = sedanenolide 0.01 ppm in carbonated water
[5] = sedanenolide 0.1 ppb in carbonated water
[6] = sedanenolide 0.1 ppm in carbonated water
[7] = sedanenolide 1 ppb in carbonated water
[8] = sedanenolide 1 ppm in carbonated water
[9] = sedanenolide 1 ppt in carbonated water
[10] = sedanenolide 10 ppm in carbonated water
[11] = sedanenolide 0.01 ppb in green tea drink having strong astringency
[12] = sedanenolide 0.01 ppm in green tea drink having strong astringency
[13] = sedanenolide 0.1 ppb in green tea drink having strong astringency
[14] = sedanenolide 0.1 ppm in green tea drink having strong astringency
[15] = sedanenolide 1 ppb in green tea drink having strong astringency
[16] = sedanenolide 1 ppm in green tea drink having strong astringency
[17] = sedanenolide 1 ppt in green tea drink having strong astringency
[18] = sedanenolide 10 ppm in green tea drink having strong astringency

CCCC[C@@H]1OC(=O)C2=C1CCC=C2 [sedanenolide]
overall result of bitterness masking ([1]; amount of sedanenolide about 0.1 ppb to 1 ppm, carbonated water): particularly good results were obtained | bitterness of carbonated water (judgment) ([1]; carbonated water containing 0.01 ppb to 10 ppm of sedanenolide): masked | A: the number of panelists who felt no difference from sedanenolide-free [1, 3]: 7 | B: the number of panelists who felt some reduction in bitterness [1, 3]: 3 | Flavor judgment: the number of panelists who judged it as most proper bitterness [1, 3]: 0 | N: the number of panelists who hardly felt bitterness [1, 3]: 0 | reduction in bitterness at low concentration ([1]; sedanenolide 0.01 ppb, carbonated water): some panelists felt some reduction in bitterness | A: the number of panelists who felt no difference from sedanenolide-free [1, 4]: 2 | B: the number of panelists who felt some reduction in bitterness [1, 4]: 2 | Flavor judgment: the number of panelists who judged it as most proper bitterness [1, 4]: 1 | N: the number of panelists who hardly felt bitterness [1, 4]: 6 | A: the number of panelists who felt no difference from sedanenolide-free [1, 5]: 5 | B: the number of panelists who felt some reduction in bitterness [1, 5]: 5 | Flavor judgment: the number of panelists who judged it as most proper bitterness [1, 5]: 0 | N: the number of panelists who hardly felt bitterness [1, 5]: 0 | A: the number of panelists who felt no difference from sedanenolide-free [1, 6]: 0 | B: the number of panelists who felt some reduction in bitterness [1, 6]: 3 | Flavor judgment: the number of panelists who judged it as most proper bitterness [1, 6]: 4 | N: the number of panelists who hardly felt bitterness [1, 6]: 7 | A: the number of panelists who felt no difference from sedanenolide-free [1, 7]: 4 | B: the number of panelists who felt some reduction in bitterness [1, 7]: 6 | Flavor judgment: the number of panelists who judged it as most proper bitterness [1, 7]: 0 | N: the number of panelists who hardly felt bitterness [1, 7]: 0 | A: the number of panelists who felt no difference from sedanenolide-free [1, 8]: 0 | B: the number of panelists who felt some reduction in bitterness [1, 8]: 3 | Flavor judgment: the number of panelists who judged it as most proper bitterness [1, 8]: 5 | N: the number of panelists who hardly felt bitterness [1, 8]: 7 | A: the number of panelists who felt no difference from sedanenolide-free [1, 9]: 10 | B: the number of panelists who felt some reduction in bitterness [1, 9]: 0 | Flavor judgment: the number of panelists who judged it as most proper bitterness [1, 9]: 0 | N: the number of panelists who hardly felt bitterness [1, 9]: 0 | A: the number of panelists who felt no difference from sedanenolide-free [1, 10]: 0 | B: the number of panelists who felt some reduction in bitterness [1, 10]: 2 | Flavor judgment: the number of panelists who judged it as most proper bitterness [1, 10]: 0 | N: the number of panelists who hardly felt bitterness [1, 10]: 8 | overall result of astringency masking ([2]; amount of sedanenolide about 0.1 ppb to 1 ppm, green tea drink): particularly good results were obtained | astringency of green tea drink (judgment) ([2]; green tea drink containing 0.01 ppb to 10 ppm of sedanenolide): masked | A: the number of panelists who felt no difference from sedanenolide-free [2, 11]: 8 | B: the number of panelists who felt some reduction in astringency [2, 11]: 2 | Flavor judgment: the number of panelists who judged it as most proper astringency [2, 11]: 0 | N: the number of panelists who hardly felt astringency [2, 11]: 0 | reduction in bitterness at low concentration ([2]; sedanenolide 0.01 ppb, green tea drink having strong astringency): some panelists felt some reduction in bitterness | A: the number of panelists who felt no difference from sedanenolide-free [2, 12]: 3 | B: the number of panelists who felt some reduction in astringency [2, 12]: 6 | Flavor judgment: the number of panelists who judged it as most proper astringency [2, 12]: 2 | N: the number of panelists who hardly felt astringency [2, 12]: 1 | A: the number of panelists who felt no difference from sedanenolide-free [2, 13]: 6 | B: the number of panelists who felt some reduction in astringency [2, 13]: 3 | Flavor judgment: the number of panelists who judged it as most proper astringency [2, 13]: 0 | N: the number of panelists who hardly felt astringency [2, 13]: 1 | A: the number of panelists who felt no difference from sedanenolide-free [2, 14]: 0 | B: the number of panelists who felt some reduction in astringency [2, 14]: 3 | Flavor judgment: the number of panelists who judged it as most proper astringency [2, 14]: 5 | N: the number of panelists who hardly felt astringency [2, 14]: 7 | A: the number of panelists who felt no difference from sedanenolide-free [2, 15]: 5 | B: the number of panelists who felt some reduction in astringency [2, 15]: 5 | Flavor judgment: the number of panelists who judged it as most proper astringency [2, 15]: 0 | N: the number of panelists who hardly felt astringency [2, 15]: 0 | A: the number of panelists who felt no difference from sedanenolide-free [2, 16]: 0 | B: the number of panelists who felt some reduction in astringency [2, 16]: 3 | Flavor judgment: the number of panelists who judged it as most proper astringency [2, 16]: 3 | N: the number of panelists who hardly felt astringency [2, 16]: 7 | A: the number of panelists who felt no difference from sedanenolide-free [2, 17]: 10 | B: the number of panelists who felt some reduction in astringency [2, 17]: 0 | Flavor judgment: the number of panelists who judged it as most proper astringency [2, 17]: 0 | N: the number of panelists who hardly felt astringency [2, 17]: 0 | A: the number of panelists who felt no difference from sedanenolide-free [2, 18]: 0 | B: the number of panelists who felt some reduction in astringency [2, 18]: 2 | Flavor judgment: the number of panelists who judged it as most proper astringency [2, 18]: 0 | N: the number of panelists who hardly felt astringency [2, 18]: 8
